According to patent US12491170B2, “Stable treprostinil prodrugs” (United Therapeutics Corporation, priority 2020, dated 2025):
Read-outs that look alike come from different tables or passages of the source.

Assays:
[1] = Stability in cryopreserved hepatocytes, human; conditions: for AUC: human
[2] = rat
[3] = dog
[4] = Stability in cryopreserved hepatocytes, rat; conditions: for AUC: rat
[5] = Stability in liver microsomes, human; conditions: for AUC: human
[6] = Stability in human subcutaneous skin homogenate; conditions: for AUC: human
[7] = Stability in liver microsomes, rat
[8] = Stability in cryopreserved hepatocytes, dog; conditions: for AUC: dog
[9] = Stability in liver microsomes, dog

CCCCCC(CCC1C(O)CC2Cc3c(cccc3OCC(=O)O)CC21)OC(=O)CC (stereo not drawn) [LV]
Trep Concentration (μM) 0 min [1]: 0.113 µM
Trep Concentration (μM) 15 min [1]: 0.725 µM
Trep Concentration (μM) 30 min [1]: 0.654 µM
Trep Concentration (μM) 60 min [1]: 0.589 µM
Trep Concentration (μM) 120 min [1]: 0.527 µM
AUC [1]: 68.75 µmol·min/L
AUC [2]: 30.87 µmol·min/L
AUC [3]: 53.25 µmol·min/L
Trep Concentration (μM) 0 min [4]: 0.0159 µM
Trep Concentration (μM) 15 min [4]: 0.506 µM
Trep Concentration (μM) 30 min [4]: 0.48 µM
Trep Concentration (μM) 60 min [4]: 0.424 µM
Trep Concentration (μM) 120 min [4]: 0.391 µM
AUC [4]: 49.32 µmol·min/L
Trep Concentration 0 min [5]: 1.17 µM
Trep Concentration 10 min [5]: 1.01 µM
Trep Concentration 20 min [5]: 0.837 µM
Trep Concentration 30 min [5]: 0.736 µM
Trep Concentration 60 min [5]: 0.389 µM
AUC [5]: 44.88 µmol·min/L
Trep Concentration 0 min [6]: 0.0045 µM
Trep Concentration 30 min [6]: 0.545 µM
Trep Concentration 60 min [6]: 0.741 µM
Trep Concentration 120 min [6]: 0.954 µM
AUC [6]: 78.38 µmol·min/L
Trep Concentration 0 min [7]: 0.26 µM
Trep Concentration 10 min [7]: 0.43 µM
Trep Concentration 20 min [7]: 0.525 µM
Trep Concentration 30 min [7]: 0.586 µM
Trep Concentration 60 min [7]: 0.553 µM
Trep Concentration (μM) 0 min [8]: 0.124 µM
Trep Concentration (μM) 30 min [8]: 0.698 µM
Trep Concentration (μM) 60 min [8]: 0.599 µM
Trep Concentration (μM) 120 min [8]: 0.53 µM
AUC [8]: 71.21 µmol·min/L
Trep Concentration 0 min [9]: 0.971 µM
Trep Concentration 10 min [9]: 0.961 µM
Trep Concentration 20 min [9]: 0.934 µM
Trep Concentration 30 min [9]: 0.915 µM
Trep Concentration 60 min [9]: 0.743 µM

CCCCCC(CCC1C(O)CC2Cc3c(cccc3OCC(=O)O)CC21)OC(=O)COc1ccc(OC(F)(F)F)cc1 (stereo not drawn) [LXIV]
Trep Concentration (μM) 0 min [1]: 0.0116 µM
Trep Concentration (μM) 15 min [1]: 0.521 µM
Trep Concentration (μM) 30 min [1]: 0.509 µM
Trep Concentration (μM) 60 min [1]: 0.458 µM
Trep Concentration (μM) 120 min [1]: 0.411 µM
AUC [1]: 52.29 µmol·min/L
AUC [2]: 51.27 µmol·min/L
AUC [3]: 35.13 µmol·min/L
Trep Concentration (μM) 0 min [4]: 0.0456 µM
Trep Concentration (μM) 15 min [4]: 0.374 µM
Trep Concentration (μM) 30 min [4]: 0.291 µM
Trep Concentration (μM) 60 min [4]: 0.234 µM
Trep Concentration (μM) 120 min [4]: 0.206 µM
AUC [4]: 29.21 µmol·min/L
Trep Concentration 0 min [5]: 0.911 µM
Trep Concentration 10 min [5]: 0.752 µM
Trep Concentration 20 min [5]: 0.667 µM
Trep Concentration 30 min [5]: 0.596 µM
Trep Concentration 60 min [5]: 0.351 µM
AUC [5]: 35.93 µmol·min/L
Trep Concentration 0 min [6]: 0 µM
Trep Concentration 30 min [6]: 0.0793 µM
Trep Concentration 60 min [6]: 0.155 µM
Trep Concentration 120 min [6]: 0.283 µM
AUC [6]: 17.84 µmol·min/L
Trep Concentration 0 min [7]: 0.803 µM
Trep Concentration 10 min [7]: 0.882 µM
Trep Concentration 20 min [7]: 0.91 µM
Trep Concentration 30 min [7]: 0.902 µM
Trep Concentration 60 min [7]: 0.753 µM
Trep Concentration (μM) 0 min [8]: 0.0196 µM
Trep Concentration (μM) 15 min [8]: 0.466 µM
Trep Concentration (μM) 30 min [8]: 0.514 µM
Trep Concentration (μM) 60 min [8]: 0.485 µM
Trep Concentration (μM) 120 min [8]: 0.451 µM
AUC [8]: 54.06 µmol·min/L
Trep Concentration 0 min [9]: 0.453 µM
Trep Concentration 10 min [9]: 0.548 µM
Trep Concentration 20 min [9]: 0.592 µM
Trep Concentration 30 min [9]: 0.603 µM
Trep Concentration 60 min [9]: 0.627 µM

CCCCCC(CCC1C(O)CC2Cc3c(cccc3OCC(=O)O)CC21)OC(=O)C(C)C (stereo not drawn) [LXVII]
Trep Concentration (μM) 0 min [1]: 0.0174 µM
Trep Concentration (μM) 15 min [1]: 0.631 µM
Trep Concentration (μM) 30 min [1]: 0.572 µM
Trep Concentration (μM) 60 min [1]: 0.506 µM
Trep Concentration (μM) 120 min [1]: 0.446 µM
AUC [1]: 58.62 µmol·min/L
AUC [2]: 25.20 µmol·min/L
AUC [3]: 56.58 µmol·min/L
Trep Concentration (μM) 0 min [4]: 0 µM
Trep Concentration (μM) 15 min [4]: 0.215 µM
Trep Concentration (μM) 30 min [4]: 0.217 µM
Trep Concentration (μM) 60 min [4]: 0.189 µM
Trep Concentration (μM) 120 min [4]: 0.172 µM
AUC [4]: 21.77 µmol·min/L
Trep Concentration 0 min [5]: 1.02 µM
Trep Concentration 10 min [5]: 0.877 µM
Trep Concentration 20 min [5]: 0.755 µM
Trep Concentration 30 min [5]: 0.664 µM
Trep Concentration 60 min [5]: 0.393 µM
AUC [5]: 40.60 µmol·min/L
Trep Concentration 0 min [6]: 0 µM
Trep Concentration 30 min [6]: 0.224 µM
Trep Concentration 60 min [6]: 0.408 µM
Trep Concentration 120 min [6]: 0.657 µM
AUC [6]: 44.79 µmol·min/L
Trep Concentration 0 min [7]: 0.281 µM
Trep Concentration 10 min [7]: 0.369 µM
Trep Concentration 20 min [7]: 0.419 µM
Trep Concentration 30 min [7]: 0.471 µM
Trep Concentration 60 min [7]: 0.433 µM
Trep Concentration (μM) 0 min [8]: 0.09 µM
Trep Concentration (μM) 15 min [8]: 0.616 µM
Trep Concentration (μM) 30 min [8]: 0.554 µM
Trep Concentration (μM) 60 min [8]: 0.459 µM
Trep Concentration (μM) 120 min [8]: 0.42 µM
AUC [8]: 55.64 µmol·min/L
Trep Concentration 0 min [9]: 0.987 µM
Trep Concentration 10 min [9]: 0.972 µM
Trep Concentration 20 min [9]: 0.982 µM
Trep Concentration 30 min [9]: 0.993 µM
Trep Concentration 60 min [9]: 0.816 µM

CCCCCC(CCC1C(O)CC2Cc3c(cccc3OCC(=O)O)CC21)OP(=O)(O)O (stereo not drawn) [VI]
Trep Concentration (μM) 0 min [1]: 0 µM
Trep Concentration (μM) 15 min [1]: 0.223 µM
Trep Concentration (μM) 30 min [1]: 0.365 µM
Trep Concentration (μM) 60 min [1]: 0.466 µM
Trep Concentration (μM) 120 min [1]: 0.540 µM
AUC [1]: 48.73 µmol·min/L
AUC [2]: 31.40 µmol·min/L
AUC [3]: 29.40 µmol·min/L
Trep Concentration (μM) 0 min [4]: 0.128 µM
Trep Concentration (μM) 15 min [4]: 0.693 µM
Trep Concentration (μM) 30 min [4]: 0.635 µM
Trep Concentration (μM) 60 min [4]: 0.564 µM
Trep Concentration (μM) 120 min [4]: 0.53 µM
AUC [4]: 66.92 µmol·min/L
Trep Concentration 0 min [5]: 0.02 µM
Trep Concentration 10 min [5]: 0.038 µM
Trep Concentration 20 min [5]: 0.038 µM
Trep Concentration 30 min [5]: 0.03 µM
Trep Concentration 60 min [5]: 0.061 µM
AUC [5]: 2.38 µmol·min/L
Trep Concentration 0 min [6]: 0 µM
Trep Concentration 30 min [6]: 0.6 µM
Trep Concentration 60 min [6]: 0.93 µM
Trep Concentration 120 min [6]: 1.07 µM
AUC [6]: 91.95 µmol·min/L
Trep Concentration 0 min [7]: 0.27 µM
Trep Concentration 10 min [7]: 0.39 µM
Trep Concentration 20 min [7]: 0.46 µM
Trep Concentration 30 min [7]: 0.53 µM
Trep Concentration 60 min [7]: 0.73 µM
Trep Concentration (μM) 0 min [8]: 0.0124 µM
Trep Concentration (μM) 30 min [8]: 0.609 µM
Trep Concentration (μM) 60 min [8]: 0.533 µM
Trep Concentration (μM) 120 min [8]: 0.548 µM
AUC [8]: 62.94 µmol·min/L
Trep Concentration 0 min [9]: 0.21 µM
Trep Concentration 10 min [9]: 0.32 µM
Trep Concentration 20 min [9]: 0.43 µM
Trep Concentration 30 min [9]: 0.48 µM
Trep Concentration 60 min [9]: 0.75 µM
